# Data taken from ChEMBL document CHEMBL1949665, “Pyrazolo[1,5-a]pyridines as p38 kinase inhibitors” (Org Lett, 2005).
# Assay: Inhibition of p38 kinase
row,Structure (SMILES),IC50 [µM]
1,CN(C)CCCNc1nccc(-c2c(-c3ccc(C(F)(F)F)cc3)nn3cc(C(F)(F)F)ccc23)n1,1.25
2,CN(C)CCCNc1nccc(-c2c(-c3ccc(F)cc3)nn3cc(C(F)(F)F)ccc23)n1,0.63
3,Fc1ccc(-c2nn3ccccc3c2-c2ccnc(Nc3ccccc3)c2)cc1,0.16
4,Cc1cccc2c(-c3ccncn3)c(-c3ccc(F)cc3)nn12,0.5
5,CN(C)C(=O)c1ccc2c(-c3ccnc(NC4CC4)n3)c(-c3cccc(C(F)(F)F)c3)nn2c1,0.06
6,Nc1nccc(-c2c(-c3ccc(F)cc3)nn3ccccc23)n1,0.1
7,Fc1ccc(-c2nn3ccccc3c2-c2ccncn2)cc1,0.63
8,OCCCNc1nccc(-c2c(-c3ccc(F)cc3)nn3cc(C(F)(F)F)ccc23)n1,0.06
9,NC(=O)c1ccc2c(-c3ccnc(NC4CC4)n3)c(-c3ccc(F)cc3)nn2c1,0.02
10,Nc1cc(-c2c(-c3ccc(F)cc3)nn3cc(C(F)(F)F)ccc23)ccn1,0.1
11,COc1cccc2c(-c3ccncc3)c(-c3ccc(F)cc3)nn12,0.1
12,CC(C)Nc1cc(-c2c(-c3ccc(F)cc3)nn3cc(C(N)=O)ccc23)ccn1,0.08
13,OCCCNc1nccc(-c2c(-c3cccc(C(F)(F)F)c3)nn3cc(C(F)(F)F)ccc23)n1,0.2
14,CN(C)CCCNc1nccc(-c2c(-c3cccc(Cl)c3)nn3cc(C(F)(F)F)ccc23)n1,0.1
15,N#Cc1ccc2c(-c3ccnc(NC4CC4)n3)c(-c3ccc(F)cc3)nn2c1 [GW561436X],0.03

# More lines, in order of falling IC50, values ahead:
row,IC50 [µM],Structure (SMILES)
1,1,CN(C)c1cc(-c2c(-c3ccc(F)cc3)nn3ccccc23)ccn1
2,0.4,CN1CCN(CCCNc2nccc(-c3c(-c4ccc(C(F)(F)F)cc4)nn4cc(C(F)(F)F)ccc34)n2)CC1
3,0.2,Nc1nccc(-c2c(-c3ccc(F)cc3)nn3cc(C(F)(F)F)ccc23)n1 [GW568326X]
4,0.16,CSc1cccc2c(-c3ccncn3)c(-c3ccc(F)cc3)nn12
5,0.16,CCCCNc1cc(-c2c(-c3ccc(F)cc3)nn3cccc(F)c23)ccn1
6,0.16,Fc1ccc(-c2nn3ccccc3c2-c2ccnc(NCc3ccccc3)c2)cc1
7,0.13,CN1CCN(CCCNc2nccc(-c3c(-c4ccc(F)cc4)nn4cc(C(F)(F)F)ccc34)n2)CC1
8,0.06,CN(C)C(=O)c1ccc2c(-c3ccnc(NC4CC4)n3)c(-c3ccc(F)cc3)nn2c1
9,0.06,CCCCNc1cc(-c2c(-c3ccc(F)cc3)nn3c(OC)cccc23)ccn1
10,0.05,N#Cc1ccc2c(-c3ccnc(NC4CC4)c3)c(-c3ccc(F)cc3)nn2c1
11,0.04,CN1CCN(CCCNc2nccc(-c3c(-c4ccc(F)cc4)nn4cc(C(N)=O)ccc34)n2)CC1
12,0.04,CCCCNc1nccc(-c2c(-c3ccc(F)cc3)nn3c(OCCF)cccc23)n1
13,0.04,CC(C)Nc1nccc(-c2c(-c3ccc(F)cc3)nn3cc(C(F)(F)F)ccc23)n1
14,0.04,OCCCNc1nccc(-c2c(-c3ccc(F)cc3)nn3cc(Cl)ccc23)n1
15,0.01,NC(=O)c1ccc2c(-c3ccnc(NCCCO)n3)c(-c3ccc(F)cc3)nn2c1 [GW581744X]
